The values below come from patent publication US6153745A, “Relating to mutagenesis of nucleic acids” (Amersham Pharmacia Biotech UK Limited, priority 1995, dated 2000).

Converted amounts (≈) assume the structure as drawn. “Also recorded” adds a separate entry of the source. Where two headings read alike, the source gives them in different places. A value given as a limit tells only on which side of the number the result lay.

In experiment [1] the target is T1, TEM-1 β-lactamase (Escherichia coli, UniProt P62593).
T1 construct: mutants cloned in pBC KS+
T1 sequence (P62593 24-286 limits assumed): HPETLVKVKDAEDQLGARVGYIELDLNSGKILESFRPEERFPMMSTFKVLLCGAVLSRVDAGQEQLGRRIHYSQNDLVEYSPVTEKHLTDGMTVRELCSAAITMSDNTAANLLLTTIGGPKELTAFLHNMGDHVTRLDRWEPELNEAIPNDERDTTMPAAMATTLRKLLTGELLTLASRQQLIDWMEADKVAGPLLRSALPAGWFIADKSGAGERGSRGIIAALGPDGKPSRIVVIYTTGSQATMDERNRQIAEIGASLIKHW
The experiment can be described thus: Cefotaxime resistance / hydrolytic activity of TEM-1 β-lactamase and mutants in E. coli. Type of experiment: cell-based. To be noted: wild type TEM-1. As to the method:
In this experiment we set to improve the hydrolytic activity of the enzyme TEM-1 β-lactamase on the poorly hydrolysed substrate cefotaxime [minimum inhibitory concentration (MIC)=0.02 μg/ml] by repeated rounds of random mutagenesis and selection on increasing concentrations of the antibiotic. The best mutants selected in the first round are subjected to a second round of mutagenesis and selection in the presence of higher concentration of antibiotic. A stepwise improvement of the efficiency of TEM-1 hydrolytic activity is attained by progressively increasing the selective pressure.
The wild type TEM-1 gene from the plasmid pBR322 was used as a template for PCT amplification in the presence of dPTP and 8-oxodGTP in addition to the four normal dNTPs. The pool of mutants generated was cloned in the vector pBC KS^+ and the library of mutants transformed in E. coli by electroporation. […] Selected mutant were analysed by sequencing and the results of the first round of mutagenesis and selection are shown in Table 3A. A different number of cycles of the mutagenic PCT was used to generate four independent libraries of mutants (libA, libB, libC and libD) each characterised by a different frequency of mutation (0.3% for libA, 0.3% for libB, 1.8% for libC and 6.3% for libD), as determined by sequence analysis of unselected clones. […]

Experiment [2] has as its target T2, Taq Polymerase (Thermus aquaticus, UniProt P19821). Description: Substrate for Taq polymerase in PCR, replacing normal dNTPs. It counts as biochemical. On the procedure: All dNTPs were at 500 μM, except in sample 4 and 7 where dPTP was at 1 mM.
B) The PCR reaction mix included: dATP, dCTP and TTP at 500 μm. Samples 1 to 4 contained dGTP at 50 μM, 25 μM, […] and 6.25 μM respectively, and 8-oxodGTP at 500 μM. Samples 5 to 8 contained the same decreasing amounts of dGTP but no 8-oxodGTP;
Lanes 5 to 8 show the PCR products obtained using the same conditions but in the absence of 8-oxodGTP.

For experiment [3], the target named is T2, Taq Polymerase. Description: Steady state kinetics of insertion opposite template A or G, primed synthetic oligonucleotide templates. To be noted: for Relative Efficiency / Vmax /Km / Vmax^(rel): 55° C. Type of experiment: biochemical. An excerpt: FIGS. 5A-D show (Top): Plots of initial velocities against [dNTP] for the incorporation by Taq polymerase of dPTP opposite A (A), TTP opposite A (B), dPTP opposite G (C), and dCTP opposite G (D).
In order to compare the relative efficiencies of insertion of dPTP opposite template adenine and guanine residues respectively, we adopted the procedure of Boosalis et al. (Boosalis et al., 1987 J. Biol. Chem. 262, 14689-14696) for the determination of steady state kinetics using one of two primed synthetic oligonucleotide templates (FIG. 5). The ^32 P-labelled primer in each case was extended by the incorporation of dGTP at two positions, followed by dPTP (template 1 and 2), TTP (template 1) or dCTP (template 2). Separation of the products by PAGE followed by quantitation of the radioactivity using a PhosphorImager allowed the determination of the initial velocities (Boosalis et al., 1987). Due to the very high extension rate of Taq polymerase, the kinetic parameters were determined at 55° C. The velocities for the insertion of the particular triphosphate opposite template (Vmax) and Km values (μM) for particular insertions were determined from non-linear regression fitting to the Michaelis-Menten equation.

The test system of experiment [4] is target DNA sequence MH22. The experiment can be described thus: PCR mutagenesis of target DNA, cloning and sequencing. It counts as biochemical. To be noted: for Number of point mutations, coding / Number of point mutations, silent / Number of point mutations, total: bases sequenced: dPTP 4093, 8-oxodGTP 5463, dPTP & 8-oxodGTP 3751; for additional (unexpected) mutations found: dPTP: out of 4093 bp, 8-oxodGTP: out of 5463 bp; for linear relation of mutation frequency with number of PCR cycles, up to: equimolar. On the procedure:
The four normal dNTPs and the analogues were used in equimolar amounts (500 μM);
Data obtained after different number of PCR cycles have been pooled and figures express percentage of total number of mutations;
Numbers at the top of the Table indicate how many times a particular codon is present in the target sequence. Open squares indicate single point mutations within a particular codon. Filled circles indicate two point mutations within a particular codon. […] Squares in shaded areas indicate silent mutations;
Filled in symbols indicate a single nucleotide change within a codon, open symbols denote two nucleotide changes within the same codon. […] Amino acids are grouped in five classes according to their physico-chemical characteristics: glycine, non-polar, polar, positively charged, and negatively charged.
The first number at the 5'-end of each sequence indicates how many PCR cycles were allowed in the presence of the analogue(s). The second number identifies different clones.
In order to investigate the mutations resulting when dPTP or 8oxodGTP was used in DNA synthesis reactions, PCR reactions were set up in which dPTP was added in equimolar concentrations to the four normal dNTPs. The DNA was amplified for a variable number of cycles and, in order to eliminate the incorporated base analogues, an aliquot of the amplified DNA was used as template in a second PCR amplification in which only the four normal dNTPs were used. The PCR product was subsequently cloned, and some of the clones sequenced (in this way, the pattern of mutation was not influenced by the DNA repair mechanisms of the E. coli host).
DNA amplification reactions were carried out for variable number of cycles, as indicated in FIGS. 11A-11C by the number preceding the point in the clone designation.
For mutagenesis experiments, 10 fmoles of template DNA were amplified using 0.5 μl of AmpliTaq polymerase (5 U/μl, Applied Biosystems) in a 20 μl reaction containing the appropriate sense and antisense […] at 0.5 μM, 2 mM MgCl2, 10 mM Tris-HCl pH8.3, 50 mM KCl, 1 g/l gelatine and dATP, dCTP, dGTP, TTP, dPTP and/or 8-oxodGTP, each at 500 μM. After various cycles (92° C. for 1 min, 55° C. for 1.5 min, 75° C. for 5 min), 1 μl of the amplified material was used in a second PCR in which the same conditions as above were used except that no dPTP or 8-oxodGTP were added to the reaction mixture. The product of the second PCR was digested with BstEII and PstI and cloned into M13VHPCRl vector (Jones et al., 1986 Nature 321, 522-525).

Experiment [5] relates to E.coli DNA polymerase I Klenow fragment. To be noted: 37° C., Purmal et al., 1994, cited from earlier work.
The subject of experiment [6] is thermostable Tth DNA polymerase. To be noted: Pavlov et al., 1994; cited from earlier work.
In experiment [7] the target is T2, Taq Polymerase. To be noted: cited from earlier work.
The conditions of experiment [8]: Singer et al. 1989; cited from earlier work.

T2 sequence (P19821 whole entry): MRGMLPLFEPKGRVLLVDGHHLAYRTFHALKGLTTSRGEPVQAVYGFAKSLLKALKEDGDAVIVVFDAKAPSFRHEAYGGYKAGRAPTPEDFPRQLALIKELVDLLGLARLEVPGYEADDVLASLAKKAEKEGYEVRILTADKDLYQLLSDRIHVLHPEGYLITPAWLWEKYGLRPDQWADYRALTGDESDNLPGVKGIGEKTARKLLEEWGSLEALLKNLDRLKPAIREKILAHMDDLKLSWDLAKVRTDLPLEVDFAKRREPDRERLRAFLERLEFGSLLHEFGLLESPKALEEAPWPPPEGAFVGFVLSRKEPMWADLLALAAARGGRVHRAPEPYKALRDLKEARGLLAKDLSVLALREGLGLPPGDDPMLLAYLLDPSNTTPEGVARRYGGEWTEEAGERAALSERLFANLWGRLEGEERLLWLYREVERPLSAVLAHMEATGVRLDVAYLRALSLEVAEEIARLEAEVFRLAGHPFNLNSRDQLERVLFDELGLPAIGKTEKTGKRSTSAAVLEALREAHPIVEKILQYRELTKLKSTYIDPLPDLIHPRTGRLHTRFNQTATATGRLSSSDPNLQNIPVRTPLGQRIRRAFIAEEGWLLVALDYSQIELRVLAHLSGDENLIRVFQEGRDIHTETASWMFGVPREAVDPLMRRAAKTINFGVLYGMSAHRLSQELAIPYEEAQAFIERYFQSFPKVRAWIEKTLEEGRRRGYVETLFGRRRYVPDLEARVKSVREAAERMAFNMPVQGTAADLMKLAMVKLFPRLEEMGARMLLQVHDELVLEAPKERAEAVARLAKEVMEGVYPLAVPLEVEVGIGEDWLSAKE

Regarding `CO/N=C(\C(=O)N[C@@H]1C(=O)N2C(C(=O)O)=C(COC(C)=O)CS[C@H]12)c1csc(N)n1` [cefotaxime], the “minimum inhibitory concentration (MIC)” value in experiment [1] turned out to be 0.02 µg/mL (≈ 0.0439 µM).
For the compound `O=C1NC2=NOCCC2=CN1[C@H]1C[C@H](O)[C@@H](COP(=O)(O)OP(=O)(O)OP(=O)(O)O)O1` [dPTP, 6-(2-deoxy-β-D-erythropentofuranosyl)-3,4-dihydro-8H-pyrimido-[4,5-c][1,2]oxazine-7-one 5'-triphosphate], in experiment [2] (350 base pair DNA, 30 cycles), the “replacement of TTP in PCR” value is “could completely replace TTP and yield amounts of product comparable to those obtained using the four normal triphosphates”; the “replacement of dCTP in PCR” value is “could replace dCTP to some extent”. Also, in experiment [3], the “incorporation efficiency opposite template adenine versus guanine” value is “approximately three times more efficiently opposite template adenine than guanine residues” and the “recognition by Taq polymerase compared with TTP” value is recorded as “virtually indistinguishable from TTP in terms of its recognition by Taq polymerase”. For the same compound, in experiment [3] (template A), the “Relative Efficiency” value came to 0.99, the “Vmax /Km” value came out at 165000 M⁻¹ and the “Vmax^(rel)” value was 0.86 ± 0.06. Moreover, in experiment [3] (template G), the “Relative Efficiency” value amounted to 0.11, the “Vmax /Km” value came out at 57000 M⁻¹ and the “Vmax^(rel)” value was found to be 0.69 ± 0.08. Besides, in experiment [4], the mutagenic efficiency compared result was “much more efficient mutagen than 8-oxodGTP”; the “types of mutation produced” value is “four transitions (A→G, T→C, G→A and C→T)”; the “Number of point mutations, coding” value was found to be 318; the “Number of point mutations, silent” value is given as 66. For the same compound, in experiment [4], the “Number of point mutations, total” value is given as 384; the “additional (unexpected) mutations found” value is “one T→G and two A→T transversions”. Also, in experiment [4] (500 μM, pooled cycles), the “A→G mutations of total mutations” value was 46.6%, the “C→T mutations of total mutations” value came to 8%, the “G→A mutations of total mutations” value is on record as 9.2% and the “T→C mutations of total mutations” value was found to be 35.5%. Further, the “codons mutated to alternative ones, out of 43 codons present” value in experiment [4] (12 mutant clones, equimolar with dNTPs) was 40 codons. Moreover, the “linear relation of mutation frequency with number of PCR cycles, up to” value in experiment [4] (500 μM) turned out to be 20 cycles.
Take `Nc1ccn([C@H]2C[C@H](O)[C@@H](COP(=O)(O)OP(=O)(O)OP(=O)(O)O)O2)c(=O)n1` [dCTP]: in experiment [3] (template G), the “Relative Efficiency” value was 1.00 and the “Vmax^(rel)” value is given as 1.01 ± 0.09.
In the case of `Nc1nc2c(nc(O)n2[C@H]2C[C@H](O)[C@@H](COP(=O)(O)OP(=O)(O)OP(=O)(O)O)O2)c(=O)[nH]1` [8-oxodGTP, 2'-Deoxy-8-hydroxyguanosine 5'-triphosphate], the “incorporation into DNA and its extension” value in experiment [2] (normal or limiting dGTP, higher 8-oxodGTP) is “some incorporation into DNA and its extension could be demonstrated”. Also, in experiment [4], the “types of mutation produced” value is “two transversions (A→C and T→G)”; the “Number of point mutations, coding” value is reported as 65; the “Number of point mutations, silent” value came to 16; the “Number of point mutations, total” value is recorded as 91. Moreover, the “additional (unexpected) mutations found” value in experiment [4] was “One C→A transversion; also recorded: two A→G transitions and one G→A transition”. In experiment [4] (500 μM, pooled cycles), the “A→C transversions of total mutations” value is reported as 38.8% and the “T→G transversions of total mutations” value was 59%. In experiment [4] (8 mutant clones, equimolar with dNTPs), the codons replaced was 18 codons. For the same compound, the “linear relation of mutation frequency with number of PCR cycles, up to” value in experiment [4] (500 μM) is at least 30 cycles. For the same compound, the Km (commonly the concentration of substrate that gives half-maximal velocity) in experiment [5] (read-out: Km for insertion opposite A) was 58 µM. The Km in experiment [5] (read-out: Km for insertion opposite C) is 63 µM. Moreover, the A→C transversions rate result in experiment [6] is given as “approximately 1%”.
With `O=P(O)(O)OP(=O)(O)OP(=O)(O)OC[C@H]1O[C@@H](n2cnc3c(O)ncnc32)C[C@@H]1O` [dITP, deoxyinosine triphosphate], in experiment [7] (prior art), the “substrate quality for Taq polymerase” value was “poor substrate for Taq Polymerase and cannot support DNA synthesis when replacing any of the four normal dNTPs”.
Regarding `O=C1NC2=NOCCC2=CN1[C@H]1C[C@H](O)[C@@H](CO)O1` [P], in experiment [7], the “recognition of template DNA containing the analogue by polymerases” value was “recognised by polymerases such as Taq polymerase in PCR and Sequenase™ in DNA sequencing”.
As for `Cc1cn([C@H]2C[C@H](O)[C@@H](COP(=O)(O)OP(=O)(O)OP(=O)(O)O)O2)c(=O)[nH]c1=O` [TTP], in experiment [3] (template A), the “Relative Efficiency” value is 1.00, the “Vmax /Km” value was 167000 M⁻¹ and the “Vmax^(rel)” value came out at 1.02 ± 0.11.
As for `CON=c1[nH]c(N)nc2c1ncn2[C@H]1C[C@H](O)[C@@H](CO)O1` [K], in experiment [7], the “recognition of template DNA containing the analogue by polymerases” value was “recognised by polymerases such as Taq polymerase in PCR and Sequenase™ in DNA sequencing”.
Turning to `CON=c1[nH]c(N)nc2c1ncn2[C@H]1C[C@H](O)[C@@H](COP(=O)(O)OP(=O)(O)OP(=O)(O)O)O1` [dKTP, 2-Amino-9-(2-deoxy-β-D-erythropentofuranosyl)-6-methoxyaminopurine 5'-triphosphate], the “replacement of dATP and dGTP in PCR” value in experiment [2] (350 base pair DNA, 30 cycles) was “could replace dATP and dGTP, but only to a limited extent”.
As for `CCOc1nc(=O)c(C)cn1[C@H]1C[C@H](O)[C@@H](COP(=O)(O)OP(=O)(O)OP(=O)(O)O)O1` [O^2 -ethylthymidine triphosphate], the A→T transversions induced result in experiment [8] is reported as “induces A→T transversions, albeit at a low frequency”.
